For 14 compounds, T/C results are on record in PubChem BioAssay AID220 (DTP/NCI, 2004).

Values joined by “and” are separate entries in the source; they are usually repeats but may differ in a detail not shown here. Identical values can stand only once. Records with an inconclusive call do not appear.

The test deals with CD8F1 mice, subcutaneous mammary adenocarcinoma, T/C%. As to the kind of experiment: NCI In Vivo Anticancer Drug Screen. Data for tumor model Mammary Adenocarcinoma CD8F1 (subcutaneous) in CD8F1. The following applies: higher = larger tumour. The procedure, abridged: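 Transplantable tumors were established in mice, animals were dosed with compound or vehicle, and survival or tumor size was then measured in both groups. The treated result was divided by the control result.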

Where [1] appears, read: endpoint: median tumor weight (est.), dose: 25.0 mg/kg/injection, schedule: Q07DX005 (ip), vehicle: Klucel (hydroxypropylcellulose) (HPC).
The mark [2] stands for this setting: endpoint: median tumor weight (est.), dose: 50.0 mg/kg/injection, schedule: Q07DX005 (ip), vehicle: Klucel (hydroxypropylcellulose) (HPC).
The mark [3] stands for this setting: endpoint: median tumor weight (est.), dose: 100.0 mg/kg/injection, schedule: Q07DX005 (ip), vehicle: Klucel (hydroxypropylcellulose) (HPC).
Where [4] appears, read: endpoint: median tumor weight change, dose: 125.0 mg/kg/injection, schedule: Q01DX001 (ip), vehicle: saline with Tween-80.
[5] abbreviates: endpoint: median tumor weight (est.), dose: 200.0 mg/kg/injection, schedule: Q07DX005 (ip), vehicle: Klucel (hydroxypropylcellulose) (HPC).

With `COc1cc2oc(=O)ccc2cc1[C@@H]1OC(=O)C2(C)O[C@@H]12` (some centres not stated), the T/C by setting is: (endpoint: median tumor weight (est.), dose: 0.94 mg/kg/injection, schedule: Q07DX005 (ip), vehicle: water) 174 % of control; (endpoint: median tumor weight (est.), dose: 3.75 mg/kg/injection, schedule: Q07DX005 (ip), vehicle: water) 101 % of control; (endpoint: median tumor weight (est.), dose: 7.5 mg/kg/injection, schedule: Q07DX005 (ip), vehicle: water) 105 % of control; (endpoint: median tumor weight (est.), dose: 15.0 mg/kg/injection, schedule: Q07DX005 (ip), vehicle: water) 124 % of control.

As to `Cn1cnc([N+](=O)[O-])c1S(=O)(=O)NCN1CCOCC1`, the T/C reads like this: (endpoint: median tumor weight (est.), dose: 12.5 mg/kg/injection, schedule: Q07DX005 (ip), vehicle: Klucel (hydroxypropylcellulose) (HPC)) 103 % of control; under setting [1], 164 % of control and 185 % of control; under setting [2], 71 % of control; under setting [3], 82 % of control and 95 % of control.

In the case of `c1ccc2c(NCCCCCCNc3c4ccccc4nc4ccccc34)c3ccccc3nc2c1`, the T/C is, setting by setting: (endpoint: median tumor weight (est.), dose: 1.25 mg/kg/injection, schedule: Q07DX005 (ip), vehicle: Klucel (hydroxypropylcellulose) (HPC)) 97 % of control; (endpoint: median tumor weight (est.), dose: 2.5 mg/kg/injection, schedule: Q07DX005 (ip), vehicle: Klucel (hydroxypropylcellulose) (HPC)) 95 % of control; (endpoint: median tumor weight (est.), dose: 5.0 mg/kg/injection, schedule: Q07DX005 (ip), vehicle: Klucel (hydroxypropylcellulose) (HPC)) 58 % of control; (endpoint: median tumor weight (est.), dose: 20.0 mg/kg/injection, schedule: Q07DX005 (ip), vehicle: Klucel (hydroxypropylcellulose) (HPC)) 47 % of control.

As for `O=C(Nc1nncs1)c1cccs1`, the T/C under setting [4] is 92 % of control and 100 % of control.

As to `O=C1c2ccccc2C(=O)c2c3c(cc(NCCNCCO)c21)N(CCO)CCN3`, the T/C by setting is: under setting [4], 97 % of control; (endpoint: median tumor weight change, dose: 250.0 mg/kg/injection, schedule: Q01DX001 (ip), vehicle: saline with Tween-80) 91 % of control; (endpoint: median tumor weight change, dose: 500.0 mg/kg/injection, schedule: Q01DX001 (ip), vehicle: saline with Tween-80) 77 % of control.

As for `CO[C@@]12[C@H](COC(N)=O)C3=C(C(=O)C(C)=C(N)C3=O)N1C[C@@H]1N[C@@H]12`, the T/C by setting is: (endpoint: median tumor weight (est.), dose: 0.37 mg/kg/injection, schedule: Q07DX006 (ip), vehicle: saline) 63 % of control; (endpoint: median tumor weight (est.), dose: 0.75 mg/kg/injection, schedule: Q07DX006 (ip), vehicle: saline) 47 % of control; (endpoint: median tumor weight (est.), dose: 1.5 mg/kg/injection, schedule: Q07DX006 (ip), vehicle: saline) 27 % of control.

`CC(=O)OCC1OC(n2ccc(N)nc2=O)C(OC(C)=O)C1OC(C)=O` (configuration not stated): the T/C runs as follows: (endpoint: median tumor weight (est.), dose: 25.0 mg/kg/injection, schedule: Q07DX005 (ip), vehicle: suspension in saline) 159 % of control; (endpoint: median tumor weight (est.), dose: 50.0 mg/kg/injection, schedule: Q07DX005 (ip), vehicle: suspension in saline) 70 % of control; (endpoint: median tumor weight (est.), dose: 100.0 mg/kg/injection, schedule: Q07DX005 (ip), vehicle: suspension in saline) 87 % of control; (endpoint: median tumor weight (est.), dose: 200.0 mg/kg/injection, schedule: Q07DX005 (ip), vehicle: suspension in saline) 88 % of control; (endpoint: median tumor weight (est.), dose: 400.0 mg/kg/injection, schedule: Q07DX005 (ip), vehicle: suspension in saline) 96 % of control; (endpoint: median tumor weight (est.), dose: 800.0 mg/kg/injection, schedule: Q07DX005 (ip), vehicle: suspension in saline) 6 % of control.

As for `c1cnc2ncncc2n1`, the T/C was 84 % of control and 100 % of control (endpoint: median tumor weight (est.), dose: 12.5 mg/kg/injection, schedule: Q07DX005 (ip), vehicle: saline with Tween-80); 93 % of control and 100 % of control (endpoint: median tumor weight (est.), dose: 25.0 mg/kg/injection, schedule: Q07DX005 (ip), vehicle: saline with Tween-80); 69 % of control and 84 % of control (endpoint: median tumor weight (est.), dose: 50.0 mg/kg/injection, schedule: Q07DX005 (ip), vehicle: saline with Tween-80); 92 % of control and 99 % of control (endpoint: median tumor weight (est.), dose: 100.0 mg/kg/injection, schedule: Q07DX005 (ip), vehicle: saline with Tween-80).

Consider `Cc1cc(N/N=C/c2ccccn2)nc2ccccc12`, for which the T/C (endpoint: median tumor weight change, dose: 31.25 mg/kg/injection, schedule: Q01DX001 (ip), vehicle: Klucel (hydroxypropylcellulose) (HPC)) is 92 % of control; the T/C (endpoint: median tumor weight change, dose: 62.5 mg/kg/injection, schedule: Q01DX001 (ip), vehicle: Klucel (hydroxypropylcellulose) (HPC)) is 100 % of control; the T/C (endpoint: median tumor weight change, dose: 125.0 mg/kg/injection, schedule: Q01DX001 (ip), vehicle: Klucel (hydroxypropylcellulose) (HPC)) was 96 % of control; the T/C (endpoint: median tumor weight change, dose: 250.0 mg/kg/injection, schedule: Q01DX001 (ip), vehicle: Klucel (hydroxypropylcellulose) (HPC)) was 59 % of control.

Take `Cc1cn(C2CC(O)C(CO)O2)c(=O)[nH]c1=O` (configuration not stated): the T/C (endpoint: median tumor weight (est.), dose: 25.0 mg/kg/injection, schedule: Q07DX005 (ip), vehicle: saline) is 88 % of control and the T/C (endpoint: median tumor weight (est.), dose: 50.0 mg/kg/injection, schedule: Q07DX005 (ip), vehicle: saline) is 107 % of control.

Turning to `C[C@]12CCC(=O)C=C1CC[C@@H]1[C@@H]2C(=O)C[C@@]2(C)[C@H]1CC[C@]2(O)C(=O)CO`, the T/C reads like this: (endpoint: median tumor weight (est.), dose: 2.0 mg/kg/injection, schedule: Q07DX005 (ip), vehicle: Klucel (hydroxypropylcellulose) (HPC)) 68 % of control; (endpoint: median tumor weight (est.), dose: 4.0 mg/kg/injection, schedule: Q07DX005 (ip), vehicle: Klucel (hydroxypropylcellulose) (HPC)) 91 % of control; (endpoint: median tumor weight (est.), dose: 8.0 mg/kg/injection, schedule: Q07DX005 (ip), vehicle: Klucel (hydroxypropylcellulose) (HPC)) 97 % of control; (endpoint: median tumor weight (est.), dose: 16.0 mg/kg/injection, schedule: Q07DX005 (ip), vehicle: Klucel (hydroxypropylcellulose) (HPC)) 71 % of control; under setting [1], 80 % of control; under setting [2], 67 % of control. Moreover, the T/C by setting is: under setting [5], 35 % of control and 58 % of control; (endpoint: median tumor weight change, dose: 500.0 mg/kg/injection, schedule: Q01DX001 (ip), vehicle: Klucel (hydroxypropylcellulose) (HPC)) 46 % of control and 64 % of control; (endpoint: median tumor weight change, dose: 1000.0 mg/kg/injection, schedule: Q01DX001 (ip), vehicle: Klucel (hydroxypropylcellulose) (HPC)) 33 % of control and 49 % of control; (endpoint: median tumor weight change, dose: 2000.0 mg/kg/injection, schedule: Q01DX001 (ip), vehicle: Klucel (hydroxypropylcellulose) (HPC)) 24 % of control and 44 % of control; (endpoint: median tumor weight change, dose: 4000.0 mg/kg/injection, schedule: Q01DX001 (ip), vehicle: Klucel (hydroxypropylcellulose) (HPC)) -18 % of control.

With `O=C(O)C1CC1.[Ag]`, the T/C reads like this: (endpoint: median tumor weight (est.), dose: 6.25 mg/kg/injection, schedule: Q07DX005 (ip), vehicle: distilled water + Tween-80) 63 % of control; (endpoint: median tumor weight (est.), dose: 12.5 mg/kg/injection, schedule: Q07DX005 (ip), vehicle: distilled water + Tween-80) 88 % of control.

Consider `O=NN(CCCl)C(=O)NC1[C@H](O)CCC[C@@H]1O` (some centres not stated), for which the T/C was 71 % of control and 73 % of control (endpoint: median tumor weight change, dose: 6.25 mg/kg/injection, schedule: Q01DX001 (ip), vehicle: saline); 15 % of control and 17 % of control (endpoint: median tumor weight change, dose: 12.5 mg/kg/injection, schedule: Q01DX001 (ip), vehicle: saline); 6 % of control (endpoint: median tumor weight change, dose: 25.0 mg/kg/injection, schedule: Q01DX001 (ip), vehicle: saline).

As for `C[C@]12C=CC(=O)C=C1CC[C@@H]1[C@@H]2C(=O)C[C@@]2(C)[C@H]1CC[C@]2(O)C(=O)CO`, the T/C (endpoint: mean tumor weight, dose: 25.0 mg/kg/injection, schedule: Q01DX009 (ip), vehicle: saline) was 173 % of control; the T/C (endpoint: mean tumor weight, dose: 37.5 mg/kg/injection, schedule: Q07DX006 (ip), vehicle: saline) was 37 % of control; the T/C (endpoint: mean tumor weight, dose: 75.0 mg/kg/injection, schedule: Q07DX005 (ip), vehicle: saline) was 93 % of control; the T/C (endpoint: mean tumor weight, dose: 75.0 mg/kg/injection, schedule: Q07DX006 (ip), vehicle: saline) was 42 % of control; the T/C (endpoint: mean tumor weight, dose: 75.0 mg/kg/injection, schedule: Q07DX007 (ip), vehicle: saline) was 10 % of control; the T/C (endpoint: mean tumor weight, dose: 100.0 mg/kg/injection, schedule: Q01DX009 (ip), vehicle: saline) was 61 % of control. In addition, the T/C reads like this: (endpoint: mean tumor weight, dose: 150.0 mg/kg/injection, schedule: Q07DX005 (ip), vehicle: saline) 95 % of control; (endpoint: mean tumor weight, dose: 150.0 mg/kg/injection, schedule: Q07DX006 (ip), vehicle: saline) 23 % of control; (endpoint: mean tumor weight, dose: 200.0 mg/kg/injection, schedule: Q07DX005 (ip), vehicle: saline) 9 % of control; (endpoint: mean tumor weight, dose: 300.0 mg/kg/injection, schedule: Q07DX006 (ip), vehicle: saline) 6 % of control; (endpoint: mean tumor weight, dose: 400.0 mg/kg/injection, schedule: Q07DX005 (ip), vehicle: saline) 21 % of control; (endpoint: mean tumor weight, dose: 800.0 mg/kg/injection, schedule: Q07DX005 (ip), vehicle: saline) 1 % of control. Besides, the T/C by setting is: under setting [3], 33 % of control; under setting [5], 26 % of control; (endpoint: median tumor weight (est.), dose: 400.0 mg/kg/injection, schedule: Q07DX005 (ip), vehicle: Klucel (hydroxypropylcellulose) (HPC)) 15 % of control; (endpoint: median tumor weight (est.), dose: 800.0 mg/kg/injection, schedule: Q07DX005 (ip), vehicle: Klucel (hydroxypropylcellulose) (HPC)) 13 % of control.
